Assay results from patent US20260262643A1, “HERBICIDAL BENZOXAZINES” (FMC CORPORATION, priority 2022, published 2026).

How the values were obtained:
sedge, umbrella = test: Test B flooded paddy test; assay type: in vivo, Cyperus difformis; settings: 250 g ai/ha, Flood, 13 days, 0 to 100 scale (0 no effect, 100 complete control)
Summary of the method: (§1)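 Two-leaf plants, 3 cm flood, in-water application, 13-day greenhouse hold, visual 0–100 rating vs untreated checks.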

soybean [1] = test: Test A preemergence; assay type: in vivo, Glycine max
Summary of the method: (§2)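 Plants were grown in loam and sand and treated preemergence or postemergence (one- to two-leaf stage, 2–10 cm) with compound in solvent plus surfactant. Response was scored against untreated controls after 10 greenhouse days, where 0 means no effect and 100 complete control.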

soybean [2] = test: Test A postemergence; assay type: in vivo, Glycine max
Summary of the method: as §2

foxtail, giant [3] = test: Test A postemergence; assay type: in vivo, Setaria faberi
Summary of the method: as §2

blackgrass [4] = test: Test A postemergence; assay type: in vivo, Alopecurus myosuroides
Summary of the method: as §2

wheat [5] = test: Test A preemergence; assay type: in vivo, Triticum aestivum
Summary of the method: as §2

corn [6] = test: Test A postemergence; assay type: in vivo, Zea mays
Summary of the method: as §2

wheat [7] = test: Test A postemergence; assay type: in vivo, Triticum aestivum
Summary of the method: as §2

corn [8] = test: Test A preemergence; assay type: in vivo, Zea mays
Summary of the method: as §2

ryegrass, Italian [9] = test: Test A preemergence; assay type: in vivo, Lolium multiflorum
Summary of the method: as §2

barnyardgrass = test: Test B flooded paddy test; assay type: in vivo, Echinochloa crus-galli; settings: 250 g ai/ha, Flood, 13 days, 0 to 100 scale (0 no effect, 100 complete control)
Summary of the method: as §1

ragweed [10] = test: Test A postemergence; assay type: in vivo, Ambrosia artemisiifolia
Summary of the method: as §2

pigweed, palmer [11] = test: Test A preemergence; assay type: in vivo, Amaranthus palmeri
Summary of the method: as §2

oat, wild [12] = test: Test A preemergence; assay type: in vivo, Avena fatua
Summary of the method: as §2

ragweed [13] = test: Test A preemergence; assay type: in vivo, Ambrosia artemisiifolia
Summary of the method: as §2

ryegrass, Italian [14] = test: Test A postemergence; assay type: in vivo, Lolium multiflorum
Summary of the method: as §2

goosegrass [15] = test: Test A postemergence; assay type: in vivo, Eleusine indica
Summary of the method: as §2

blackgrass [16] = test: Test A preemergence; assay type: in vivo, Alopecurus myosuroides
Summary of the method: as §2

oat, wild [17] = test: Test A postemergence; assay type: in vivo, Avena fatua
Summary of the method: as §2

rice = test: Test B flooded paddy test; assay type: in vivo, Oryza sativa; settings: 250 g ai/ha, Flood, 13 days, 0 to 100 scale (0 no effect, 100 complete control)
Summary of the method: as §1

galium = test: Test A postemergence; assay type: in vivo, Galium aparine
Summary of the method: as §2

foxtail, giant [18] = test: Test A preemergence; assay type: in vivo, Setaria faberi
Summary of the method: as §2

ducksalad = test: Test B flooded paddy test; assay type: in vivo, Heteranthera limosa; settings: 250 g ai/ha, Flood, 13 days, 0 to 100 scale (0 no effect, 100 complete control)
Summary of the method: as §1

goosegrass [19] = test: Test A preemergence; assay type: in vivo, Eleusine indica
Summary of the method: as §2

kochia [20] = test: Test A preemergence; assay type: in vivo, Bassia scoparia
Summary of the method: as §2

kochia [21] = test: Test A postemergence; assay type: in vivo, Bassia scoparia
Summary of the method: as §2

horseweed = test: Test A postemergence; assay type: in vivo, Erigeron canadensis
Summary of the method: as §2

pigweed, palmer [22] = test: Test A postemergence; assay type: in vivo, Amaranthus palmeri
Summary of the method: as §2

[23] = 125 g ai/ha, visual injury after 10 days, 0 to 100 scale, 0 is no effect, 100 is complete control
[24] = 500 g ai/ha, 0 to 100 scale (0 no effect, 100 complete control), 10 days
[25] = 125 g ai/ha, postemergence, 10 days, 0 to 100 scale, 0 no effect, 100 complete control
[26] = 500 g ai/ha, postemergence, 10 days, visual injury, 0 to 100 scale (0 no effect, 100 complete control)
[27] = 125 g ai/ha, postemergence, 10 days, visual injury, 0 to 100 scale (0 no effect, 100 complete control)
[28] = 500 g ai/ha, Postemergence, 0 to 100 scale

In the case of Cc1ccc(-n2cnc(C(C)C)n2)cc1C(=O)N1C[C@H](C)Oc2c(C)cccc21 [Compound 99], the “Plant response rating, Sedge, Umbrella” value (sedge, umbrella) is reported as 95, the “Plant response rating, Soybean” value (soybean [1]; [23]) is reported as 80 and the “Plant response rating, Soybean” value (soybean [1]; [24]) is reported as 100. For the same compound, the “Soybean plant response rating” value (soybean [2]; [25]) was 100, the “Plant response rating, Soybean” value (soybean [2]; [26]) was 100 and the “Foxtail, Giant plant response rating” value (foxtail, giant [3]; [25]) was 90. The “Plant response rating, Foxtail, Giant” value (foxtail, giant [3]; [26]) was 90, the “Blackgrass plant response rating” value (blackgrass [4]; [25]) was 90 and the “Plant response rating, Blackgrass” value (blackgrass [4]; [26]) was 90. For the same compound, the “Plant response rating, Wheat” value (wheat [5]; [23]) was 30, the “Plant response rating, Wheat” value (wheat [5]; [24]) was 80 and the “Corn plant response rating” value (corn [6]; [25]) was 70. The “Plant response rating, Corn” value (corn [6]; [26]) was 90, the “Wheat plant response rating” value (wheat [7]; [25]) was 80 and the “Plant response rating, Wheat” value (wheat [7]; [26]) was 90. For the same compound, the “Plant response rating, Corn” value (corn [8]; [23]) was 10, the “Plant response rating, Corn” value (corn [8]; [24]) was 50 and the “Plant response rating, Ryegrass, Italian” value (ryegrass, Italian [9]; [23]) was 90. For the same compound, the “Plant response rating, Ryegrass, Italian” value (ryegrass, Italian [9]; [24]) was 100, the “Plant response rating, Barnyardgrass” value (barnyardgrass) was 35 and the “Ragweed plant response rating” value (ragweed [10]; [25]) was 40. The “Plant response rating, Ragweed” value (ragweed [10]; [26]) was 90, the “Plant response rating, Pigweed, Palmer” value (pigweed, palmer [11]; [23]) was 100 and the “Plant response rating, Pigweed, Palmer” value (pigweed, palmer [11]; [24]) was 100. The “Plant response rating, Oat, Wild” value (oat, wild [12]; [23]) was 70, the “Plant response rating, Oat, Wild” value (oat, wild [12]; [24]) was 90 and the “Plant response rating, Ragweed” value (ragweed [13]; [23]) was 40. For the same compound, the “Plant response rating, Ragweed” value (ragweed [13]; [24]) was 80, the “Ryegrass, Italian plant response rating” value (ryegrass, Italian [14]; [25]) was 50 and the “Plant response rating, Ryegrass, Italian” value (ryegrass, Italian [14]; [26]) was 100. For the same compound, the “Goosegrass plant response rating” value (goosegrass [15]; [25]) was 90, the “Plant response rating, Goosegrass” value (goosegrass [15]; [26]) was 100 and the “Plant response rating, Blackgrass” value (blackgrass [16]; [23]) was 80. For the same compound, the “Plant response rating, Blackgrass” value (blackgrass [16]; [24]) was 90, the “Oat, Wild plant response rating” value (oat, wild [17]; [25]) was 70 and the “Plant response rating, Oat, Wild” value (oat, wild [17]; [26]) was 90. For the same compound, the “Plant response rating, Rice” value (rice) was 10, the “Galium plant response rating” value (galium; [25]) was 100 and the “Plant response rating, Galium” value (galium; [26]) was 100. For the same compound, the “Plant response rating, Foxtail, Giant” value (foxtail, giant [18]; [23]) was 100, the “Plant response rating, Foxtail, Giant” value (foxtail, giant [18]; [24]) was 100 and the “Plant response rating, Ducksalad” value (ducksalad) was 40. For the same compound, the “Plant response rating, Goosegrass” value (goosegrass [19]; [23]) was 100, the “Plant response rating, Goosegrass” value (goosegrass [19]; [24]) was 100 and the “Plant response rating, Kochia” value (kochia [20]; [23]) was 100. For the same compound, the “Plant response rating, Kochia” value (kochia [20]; [24]) was 100, the “Kochia plant response rating” value (kochia [21]; [25]) was 80 and the “Plant response rating, Kochia” value (kochia [21]; [26]) was 90. The “Horseweed plant response rating” value (horseweed; [25]) was 70, the “Plant response rating, Horseweed” value (horseweed; [26]) was 80 and the “Pigweed, Palmer plant response rating” value (pigweed, palmer [22]; [25]) was 90. The “Plant response rating, Pigweed, Palmer” value (pigweed, palmer [22]; [26]) was 100.

For CC1CN(C(=O)c2cc(-n3cncn3)ccc2F)c2cccc(Cl)c2O1 (centres unmarked) [Compound 39], the “Plant response rating, Sedge, Umbrella” value (sedge, umbrella) was 0, the “Plant response rating, Soybean” value (soybean [1]; [23]) was 30 and the “Plant response rating, Soybean” value (soybean [1]; [24]) was 70. For the same compound, the “Plant response rating, Soybean” value (soybean [2]; [27]) was 100, the “Plant response rating, Soybean” value (soybean [2]; [28]) was 100 and the “Plant response rating, Foxtail, Giant” value (foxtail, giant [3]; [27]) was 10. The “Plant response rating, Foxtail, Giant” value (foxtail, giant [3]; [28]) was 90, the “Plant response rating, Blackgrass” value (blackgrass [4]; [27]) was 60 and the “Plant response rating, Blackgrass” value (blackgrass [4]; [28]) was 60. The “Plant response rating, Wheat” value (wheat [5]; [23]) was 0, the “Plant response rating, Wheat” value (wheat [5]; [24]) was 30 and the “Plant response rating, Corn” value (corn [6]; [27]) was 0. For the same compound, the “Plant response rating, Corn” value (corn [6]; [28]) was 70, the “Plant response rating, Wheat” value (wheat [7]; [27]) was 10 and the “Plant response rating, Wheat” value (wheat [7]; [28]) was 50. For the same compound, the “Plant response rating, Corn” value (corn [8]; [23]) was 0, the “Plant response rating, Corn” value (corn [8]; [24]) was 30 and the “Plant response rating, Ryegrass, Italian” value (ryegrass, Italian [9]; [23]) was 40. For the same compound, the “Plant response rating, Ryegrass, Italian” value (ryegrass, Italian [9]; [24]) was 100, the “Plant response rating, Barnyardgrass” value (barnyardgrass) was 0 and the “Plant response rating, Ragweed” value (ragweed [10]; [27]) was 0. For the same compound, the “Plant response rating, Ragweed” value (ragweed [10]; [28]) was 60, the “Plant response rating, Pigweed, Palmer” value (pigweed, palmer [11]; [23]) was 50 and the “Plant response rating, Pigweed, Palmer” value (pigweed, palmer [11]; [24]) was 90. For the same compound, the “Plant response rating, Oat, Wild” value (oat, wild [12]; [23]) was 0, the “Plant response rating, Oat, Wild” value (oat, wild [12]; [24]) was 70 and the “Plant response rating, Ragweed” value (ragweed [13]; [23]) was 10. The “Plant response rating, Ragweed” value (ragweed [13]; [24]) was 20, the “Plant response rating, Ryegrass, Italian” value (ryegrass, Italian [14]; [27]) was 50 and the “Plant response rating, Ryegrass, Italian” value (ryegrass, Italian [14]; [28]) was 100. For the same compound, the “Plant response rating, Goosegrass” value (goosegrass [15]; [27]) was 30, the “Plant response rating, Goosegrass” value (goosegrass [15]; [28]) was 60 and the “Plant response rating, Blackgrass” value (blackgrass [16]; [23]) was 0. For the same compound, the “Plant response rating, Blackgrass” value (blackgrass [16]; [24]) was 60, the “Plant response rating, Oat, Wild” value (oat, wild [17]; [27]) was 40 and the “Plant response rating, Oat, Wild” value (oat, wild [17]; [28]) was 90. For the same compound, the “Plant response rating, Rice” value (rice) was 0, the “Plant response rating, Galium” value (galium; [27]) was 90 and the “Plant response rating, Galium” value (galium; [28]) was 100. For the same compound, the “Plant response rating, Foxtail, Giant” value (foxtail, giant [18]; [23]) was 90, the “Plant response rating, Foxtail, Giant” value (foxtail, giant [18]; [24]) was 100 and the “Plant response rating, Ducksalad” value (ducksalad) was 0. For the same compound, the “Plant response rating, Goosegrass” value (goosegrass [19]; [23]) was 90, the “Plant response rating, Goosegrass” value (goosegrass [19]; [24]) was 100 and the “Plant response rating, Kochia” value (kochia [20]; [23]) was 0. For the same compound, the “Plant response rating, Kochia” value (kochia [20]; [24]) was 50, the “Plant response rating, Kochia” value (kochia [21]; [27]) was 30 and the “Plant response rating, Kochia” value (kochia [21]; [28]) was 60. The “Plant response rating, Horseweed” value (horseweed; [27]) was 0, the “Plant response rating, Horseweed” value (horseweed; [28]) was 20 and the “Plant response rating, Pigweed, Palmer” value (pigweed, palmer [22]; [27]) was 20. The “Plant response rating, Pigweed, Palmer” value (pigweed, palmer [22]; [28]) was 40.
